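How tested: cells in 96-well plates exposed to compound for 48 hours at five concentrations. Definition used: TGI = concentration required for complete inhibition of growth.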
Assays:
Assay in all cases: NCI tumour cell line growth inhibition, 48 h
786-0 renal = tested on: 786-0 renal
A498 renal = tested on: A498 renal
A549 NSCLC = tested on: A549 NSCLC
ACHN renal = tested on: ACHN renal
BT-549 breast = tested on: BT-549 breast
CAKI-1 renal = tested on: CAKI-1 renal
CCRF-CEM leukemia = tested on: CCRF-CEM leukemia
COLO 205 colon = tested on: COLO 205 colon
DLD-1 colon = tested on: DLD-1 colon
DMS 114 small cell lung = tested on: DMS 114 small cell lung
DMS 273 small cell lung = tested on: DMS 273 small cell lung
DU-145 prostate = tested on: DU-145 prostate
EKVX NSCLC = tested on: EKVX NSCLC
HCC-2998 colon = tested on: HCC-2998 colon
HCT-116 colon = tested on: HCT-116 colon
HCT-15 colon = tested on: HCT-15 colon
HL-60(TB) leukemia = tested on: HL-60(TB) leukemia
HOP-18 NSCLC = tested on: HOP-18 NSCLC
HOP-62 NSCLC = tested on: HOP-62 NSCLC
HOP-92 NSCLC = tested on: HOP-92 NSCLC
HS 578T breast = tested on: HS 578T breast
HT29 colon = tested on: HT29 colon
IGROV1 ovarian = tested on: IGROV1 ovarian
K-562 leukemia = tested on: K-562 leukemia
KM12 colon = tested on: KM12 colon
KM20L2 colon = tested on: KM20L2 colon
LOX IMVI melanoma = tested on: LOX IMVI melanoma
LXFL 529 NSCLC = tested on: LXFL 529 NSCLC
M14 melanoma = tested on: M14 melanoma
M19-MEL melanoma = tested on: M19-MEL melanoma
MALME-3M melanoma = tested on: MALME-3M melanoma
MCF7 breast = tested on: MCF7 breast
MDA-MB-231 breast = tested on: MDA-MB-231 breast
MDA-MB-435 = tested on: MDA-MB-435
MDA-N = tested on: MDA-N
MOLT-4 leukemia = tested on: MOLT-4 leukemia
NCI-H226 lung = tested on: NCI-H226 lung
NCI-H23 lung = tested on: NCI-H23 lung
NCI-H460 lung = tested on: NCI-H460 lung
NCI-H522 lung = tested on: NCI-H522 lung
NCI/ADR-RES ovarian = tested on: NCI/ADR-RES ovarian
OVCAR-3 ovarian = tested on: OVCAR-3 ovarian
OVCAR-4 ovarian = tested on: OVCAR-4 ovarian
OVCAR-5 ovarian = tested on: OVCAR-5 ovarian
OVCAR-8 ovarian = tested on: OVCAR-8 ovarian
PC-3 prostate = tested on: PC-3 prostate
RPMI-8226 leukemia = tested on: RPMI-8226 leukemia
RXF 393 renal = tested on: RXF 393 renal
RXF-631 renal = tested on: RXF-631 renal
SF-268 CNS = tested on: SF-268 CNS
SF-295 CNS = tested on: SF-295 CNS
SF-539 CNS = tested on: SF-539 CNS
SK-MEL-2 melanoma = tested on: SK-MEL-2 melanoma
SK-MEL-28 melanoma = tested on: SK-MEL-28 melanoma
SK-MEL-5 melanoma = tested on: SK-MEL-5 melanoma
SK-OV-3 ovarian = tested on: SK-OV-3 ovarian
SN12C renal = tested on: SN12C renal
SNB-19 CNS = tested on: SNB-19 CNS
SNB-75 CNS = tested on: SNB-75 CNS
SNB-78 CNS = tested on: SNB-78 CNS
SR leukemia = tested on: SR leukemia
SW-620 colon = tested on: SW-620 colon
T-47D breast = tested on: T-47D breast
TK-10 renal = tested on: TK-10 renal
U251 CNS = tested on: U251 CNS
UACC-257 melanoma = tested on: UACC-257 melanoma
UACC-62 melanoma = tested on: UACC-62 melanoma
UO-31 renal = tested on: UO-31 renal
XF 498 CNS = tested on: XF 498 CNS
P388 leukemia = tested on: P388 leukemia
P388/ADR leukemia = tested on: P388/ADR leukemia
SN12K1 renal = tested on: SN12K1 renal

CN1CCN(C)C12C=c1ccccc1=CC21CC1
TGI (786-0 renal): > 100 µM
TGI (A498 renal): > 100 µM
TGI (A549 NSCLC): > 100 µM
TGI (ACHN renal): > 100 µM
TGI (BT-549 breast): > 100 µM
TGI (CAKI-1 renal): > 100 µM
TGI (CCRF-CEM leukemia): 58.2 µM
TGI (COLO 205 colon): 25.6 µM
TGI (DLD-1 colon): 68.2 µM
TGI (DMS 114 small cell lung): 36.3 µM
TGI (DMS 273 small cell lung): > 100 µM
TGI (DU-145 prostate): > 100 µM
TGI (EKVX NSCLC): > 100 µM
TGI (HCC-2998 colon): 30.4 µM
TGI (HCT-116 colon): 56.9 µM
TGI (HCT-15 colon): 73.6 µM
TGI (HL-60(TB) leukemia): 46.1 µM
TGI (HOP-18 NSCLC): > 100 µM
TGI (HOP-62 NSCLC): > 100 µM
TGI (HOP-92 NSCLC): 79.5 µM
TGI (HS 578T breast): > 31.6 µM
TGI (HT29 colon): 32.7 µM
TGI (IGROV1 ovarian): > 100 µM
TGI (K-562 leukemia): 46.4 µM
TGI (KM12 colon): 68.4 µM
TGI (KM20L2 colon): > 58.2 µM
TGI (LOX IMVI melanoma): 90 µM
TGI (LXFL 529 NSCLC): 31.2 µM
TGI (M14 melanoma): 34.8 µM
TGI (M19-MEL melanoma): 37.1 µM
TGI (MALME-3M melanoma): 59 µM
TGI (MCF7 breast): > 100 µM
TGI (MDA-MB-231 breast): > 100 µM
TGI (MDA-MB-435): 48.3 µM
TGI (MDA-N): > 63.9 µM
TGI (MOLT-4 leukemia): 54.8 µM
TGI (NCI-H226 lung): > 100 µM
TGI (NCI-H23 lung): > 100 µM
TGI (NCI-H460 lung): > 75.1 µM
TGI (NCI-H522 lung): 52.9 µM
TGI (NCI/ADR-RES ovarian): > 100 µM
TGI (OVCAR-3 ovarian): > 100 µM
TGI (OVCAR-4 ovarian): > 100 µM
TGI (OVCAR-5 ovarian): > 100 µM
TGI (OVCAR-8 ovarian): 98 µM
TGI (PC-3 prostate): > 96.3 µM
TGI (RPMI-8226 leukemia): 75.1 µM
TGI (RXF 393 renal): > 92.6 µM
TGI (RXF-631 renal): > 100 µM
TGI (SF-268 CNS): > 77 µM
TGI (SF-295 CNS): > 100 µM
TGI (SF-539 CNS): > 100 µM
TGI (SK-MEL-2 melanoma): 53.7 µM
TGI (SK-MEL-28 melanoma): 43 µM
TGI (SK-MEL-5 melanoma): 51.1 µM
TGI (SK-OV-3 ovarian): > 100 µM
TGI (SN12C renal): > 100 µM
TGI (SNB-19 CNS): > 100 µM
TGI (SNB-75 CNS): > 93.1 µM
TGI (SNB-78 CNS): > 100 µM
TGI (SR leukemia): 63.2 µM
TGI (SW-620 colon): 48.3 µM
TGI (T-47D breast): > 86.2 µM
TGI (TK-10 renal): > 100 µM
TGI (U251 CNS): > 82 µM
TGI (UACC-257 melanoma): 48.2 µM
TGI (UACC-62 melanoma): 34 µM
TGI (UO-31 renal): > 100 µM
TGI (XF 498 CNS): 49.5 µM

CC(C)C(=O)NC(=S)Nc1ccc([N+](=O)[O-])cc1C#N
TGI (786-0 renal): > 100 µM
TGI (A498 renal): > 100 µM
TGI (A549 NSCLC): > 100 µM
TGI (ACHN renal): > 100 µM
TGI (CAKI-1 renal): > 100 µM
TGI (CCRF-CEM leukemia): > 100 µM
TGI (COLO 205 colon): 52.7 µM
TGI (DLD-1 colon): > 100 µM
TGI (DMS 114 small cell lung): > 100 µM
TGI (DMS 273 small cell lung): > 100 µM
TGI (EKVX NSCLC): > 100 µM
TGI (HCC-2998 colon): > 100 µM
TGI (HCT-116 colon): > 100 µM
TGI (HCT-15 colon): > 100 µM
TGI (HL-60(TB) leukemia): > 100 µM
TGI (HOP-18 NSCLC): > 100 µM
TGI (HOP-62 NSCLC): > 100 µM
TGI (HOP-92 NSCLC): > 100 µM
TGI (HT29 colon): > 100 µM
TGI (IGROV1 ovarian): > 100 µM
TGI (K-562 leukemia): > 100 µM
TGI (KM12 colon): > 100 µM
TGI (KM20L2 colon): > 100 µM
TGI (LOX IMVI melanoma): > 100 µM
TGI (LXFL 529 NSCLC): > 100 µM
TGI (M14 melanoma): > 100 µM
TGI (M19-MEL melanoma): > 100 µM
TGI (MALME-3M melanoma): > 100 µM
TGI (MOLT-4 leukemia): > 100 µM
TGI (NCI-H226 lung): > 100 µM
TGI (NCI-H23 lung): > 100 µM
TGI (NCI-H460 lung): > 100 µM
TGI (NCI-H522 lung): > 100 µM
TGI (OVCAR-3 ovarian): > 100 µM
TGI (OVCAR-4 ovarian): > 100 µM
TGI (OVCAR-5 ovarian): > 100 µM
TGI (OVCAR-8 ovarian): > 100 µM
TGI (RPMI-8226 leukemia): > 100 µM
TGI (RXF 393 renal): > 100 µM
TGI (RXF-631 renal): > 100 µM
TGI (SF-268 CNS): > 100 µM
TGI (SF-295 CNS): > 100 µM
TGI (SF-539 CNS): > 100 µM
TGI (SK-MEL-2 melanoma): > 100 µM
TGI (SK-MEL-28 melanoma): > 100 µM
TGI (SK-MEL-5 melanoma): > 100 µM
TGI (SK-OV-3 ovarian): > 100 µM
TGI (SN12C renal): > 100 µM
TGI (SNB-19 CNS): > 100 µM
TGI (SNB-75 CNS): > 100 µM
TGI (SNB-78 CNS): > 100 µM
TGI (SR leukemia): > 100 µM
TGI (SW-620 colon): > 100 µM
TGI (TK-10 renal): > 100 µM
TGI (U251 CNS): > 100 µM
TGI (UACC-257 melanoma): > 100 µM
TGI (UACC-62 melanoma): > 100 µM
TGI (UO-31 renal): > 100 µM
TGI (XF 498 CNS): > 100 µM

O=C(CC1=NCCN1)c1ccccc1
TGI (A498 renal): > 75 µM
TGI (A549 NSCLC): > 285 µM
TGI (CAKI-1 renal): > 750 µM
TGI (CCRF-CEM leukemia): > 511 µM
TGI (COLO 205 colon): > 750 µM
TGI (DLD-1 colon): > 750 µM
TGI (DMS 114 small cell lung): > 750 µM
TGI (DMS 273 small cell lung): > 750 µM
TGI (EKVX NSCLC): > 750 µM
TGI (HCC-2998 colon): > 750 µM
TGI (HCT-116 colon): > 750 µM
TGI (HCT-15 colon): > 750 µM
TGI (HL-60(TB) leukemia): > 750 µM
TGI (HOP-18 NSCLC): > 750 µM
TGI (HOP-62 NSCLC): > 750 µM
TGI (HOP-92 NSCLC): > 750 µM
TGI (HT29 colon): > 750 µM
TGI (IGROV1 ovarian): > 750 µM
TGI (K-562 leukemia): > 750 µM
TGI (KM12 colon): > 750 µM
TGI (KM20L2 colon): > 750 µM
TGI (LOX IMVI melanoma): > 750 µM
TGI (M19-MEL melanoma): > 750 µM
TGI (MALME-3M melanoma): > 750 µM
TGI (MCF7 breast): > 750 µM
TGI (MOLT-4 leukemia): > 750 µM
TGI (NCI-H226 lung): 742 µM
TGI (NCI-H23 lung): > 750 µM
TGI (NCI-H460 lung): > 511 µM
TGI (NCI-H522 lung): > 750 µM
TGI (NCI/ADR-RES ovarian): > 750 µM
TGI (OVCAR-3 ovarian): > 750 µM
TGI (OVCAR-4 ovarian): > 750 µM
TGI (OVCAR-5 ovarian): > 750 µM
TGI (OVCAR-8 ovarian): > 750 µM
TGI (P388 leukemia): > 750 µM
TGI (P388/ADR leukemia): > 750 µM
TGI (RPMI-8226 leukemia): > 750 µM
TGI (RXF 393 renal): > 750 µM
TGI (SF-268 CNS): > 750 µM
TGI (SF-295 CNS): > 750 µM
TGI (SF-539 CNS): > 750 µM
TGI (SK-MEL-2 melanoma): > 750 µM
TGI (SK-MEL-28 melanoma): > 750 µM
TGI (SK-MEL-5 melanoma): > 750 µM
TGI (SK-OV-3 ovarian): > 750 µM
TGI (SN12C renal): > 750 µM
TGI (SN12K1 renal): > 750 µM
TGI (SNB-19 CNS): > 750 µM
TGI (SNB-75 CNS): > 750 µM
TGI (SNB-78 CNS): > 750 µM
TGI (SW-620 colon): > 750 µM
TGI (U251 CNS): > 750 µM
TGI (UACC-257 melanoma): > 750 µM
TGI (UACC-62 melanoma): > 750 µM
TGI (UO-31 renal): > 750 µM
TGI (XF 498 CNS): > 750 µM
